Laboratory results: patent US11685741B2, “Fluorescent probes” (University of Massachusetts, priority 2017, dated 2023)
“And” between values parts separate entries of the source, which are not always exact repeats. Identical values can stand only once. “Also recorded” adds a separate entry of the source.

Legend:
[1] = system: cells in the culture experiments; experiment: Cell permeability and toxicity in the culture experiments; assay type: cell-based
[2] = Binding studies of sensor with Fe3+ (Job's plot, titration, EDTA reversibility); details: 1:1 sensor-Fe^3+ complex; ACN/Tris-HCl buffer pH 7.3
Method: Job's method and UV-vis spectra were applied to study the binding stoichiometry between Rh-PK and Fe^3+ and monitored by the absorbance at 555 nm. […] The binding constant of this complex was calculated following a method reported previously (G. E. Tumambac, et al., Tetrahedron 2004, 60, 11293-11297), using absorption values at […] by the equations described below, and was determined to be 1.54×10^7 […].
The equations below was used to calculate the binding constants with stoichiometry of 1:1. L+S↔LS where L=sensor, S=Fe3+ and LS=sensor-Fe^3+ complex. The apparent binding constant is given by
[formula] Fe is the fraction of L that formed a complex, [LS]e is concentration at equilibrium, [L]0 is the initial concentration. Au, Am, and Ac are the absorbances of solutions of L (before any Fe^3+ was added), during the titration and at saturation, respectively. The concentration of free Fe^3+ at equilibrium, [S]e, is found with the following identity. [S]e=[S]o−[LS]e=[S]o−Fc[L]o The apparent binding constant K can then be calculated from
Reversibility experiments were carried out by adding EDTA to the complex in ACN/Tris-HCl buffer (10 mM, pH 7.3, v/v 3:1). […]
The stoichiometry of RhHPA-Fe^3+ was measured using Job's plot and mole ratio plots methods. B. Valeur, Molecular Fluorescence: Principles and Applications, Wiley-VCH. […] To determine the binding constant of chemosensor, a fluorescence titration of different amounts of Fe^3+ into the acetonitrile solution of sensor was carried out. […] The determination of the binding constant of RhHPA was calculated using the following equation: F−Fmin=[…](Fmax−Fmin)/Kd where F is the observed fluorescence, Fmax is the maximum fluorescence for the RhHPA-Fe^3+ complex at concentration of the equal reacted between sensor and metal cation, Fmin is the fluorescence intensity for occurring RhHPA-Fe^3+.
Absorption enhancement observation at 558 nm was plotted against the molar value of the [Fe^3+]/[Fe^3+]+RhHPA and [Fe^3+]/RhHPA. […] Binding constant of fluorescent sensor “RhHPA” was calculated and it was found as K=1.27×10^7 M^−1. […]

[3] = Metal ion sensing: UV-vis and fluorescence response to Fe3+ and other metal ions; details: one equivalent Fe^3+, ACN/Tris-HCl buffer pH 7.3
Method: The spectroscopic properties of Rh-PK and its interactions with various metal ions were evaluated in acetonitrile (ACN)/Tris-HCl buffer (10 mM, pH 7.3, v/v, 3:1). […] The changes in UV-Vis spectra after the addition of various ions are shown in FIG. 2, which is an absorbance spectrum of 100 μM sensor with various metal ions (100 μM for Ni^+2, Cu^+, Cu^+2, Zn^+2, Pb, Fe^+2, Fe^+3, Cr^+3, Hg^+2, Mn^+2, Ag^+, and Co^+2; 200 μM for K^+, Na^+, Ca^2+ and Mg^2+) in the ACN/Tris buffer (10 mM, pH 7.3, v/v 3:1).
When Fe^3+ was added into the solution of Rh-PK, a significant enhancement of fluorescence (>12-fold with 1.0 equiv of Fe^3+) was observed.
The interferences from the other metal ions with Rh-PK in its response to Fe^3+ was examined. […] Each of the 12 metal ions was pre-incubated with Rh-PK before 1 equiv. of Fe^3+ was added, the fluorescence response was then measured.
The stock solution of sensor and metal ions were prepared at the concentration of 1 mM. M. P. Walkees, Mutat. Res., 2003, 533, 107; M. Waisberg, et al., Toxicology, 2003, 192, 95.
The UV-vis. and fluorescence spectra of RhHPA to various possible interfering metal ions and its selectivity for Fe^3+ were examined. See FIG. 6, which is a plot of absorbance dependent on the concentration of Fe^3+ in the range from 0 to 2 equivalents in ACN/Tris-HCl buffer (10 mM, pH 7.3, v/v 2:1); FIG. 7, which is a Job's plot between Fe^3+ and RhHPA, indicating the 1:1 binding mode for sensor and iron(III). […] Addition of Na^+, K^+, Ca^2+, Mg^2+, Cr^3+, […], Hg^2+, Cu^2+, Pb^2+, Zn^2+, Fe^2+, Co^2+, Ni^2+, and Ag^+ exerted little or no effect on the emission of RhHPA, while remarkable fluorescence enhancement was detected upon the addition of Fe^3+ by excitation of the rhodamine fluorophore at 535 nm.
Experiments of iron(III) with other metal ions were investigated by means of the fluorescence response of RhHPA toward Fe^3+ in the presence of various other metal ions such as Na^+, K^+, Ca^2+, Mg^2+, Cr^3+, Hg^2+, Cu^2+, Pb^2+, Zn^2+, Fe^2+, Co^2+, Ni^2+, Cd^2+, and Ag^+. […] for Fe^3+ had no changes with addition of other metal ions. Cu(II) and Zn(II) increased the fluorescence intensity slightly.

[4] = system: Bovine aortic endothelial cells (BAEC); experiment: Confocal imaging of Fe3+ with RhHPA in BAEC cells; assay type: cell-based
Method: Primary cultured Bovine aortic endothelial cells (BAEC) were passaged in Endothelial Basal Medium (Lonza) containing 5% fetal bovine serum. Before the experiment, the cells were cultured to about 8th generation. For experiment preparation, the cells were routinely subcultured using 0.05% trypsin-EDTA solution. The cells were seeded on the 25 cm^2 flask and medium change every two days until a 70% confluency before transferring into disks. The cells were seeded on the 1 cm^2 disk and a medium change the next day.
To evaluate the ability of RhHPA to capture Fe^3+ ions in cells, BAEC cells were incubated with the sensor (10 μM) for 30 min.
BAEC cells were incubated with 10 μM of ferric chloride (FeCl3) at 37° C. for overnight, then 10 μM of RhHPA was added to BAEC cells and was incubated at 37° C. for 30 min.
For the second control experiment, an Fe^3+-chelator SIH was added to iron-loaded and non-iron-loaded cells with RhHPA.
BAEC cells (without Fe^3+ treatment) were treated with RhHPA, MitoTracker Green FM and LysoTracker blue DND-22. As shown in FIG. 20A to FIG. 20H, there are partial colocalization between RhHPA-Fe^3+ and the MitoTracker (FIG. 20E) as well as that between RhHPA-Fe^3+ and the LysoTracker (FIG. 20F); however, a […] colocalization was observed among RhHPA-Fe^3+, MitoTracker and LysoTracker (FIG. 20G).

[5] = Effect of pH on fluorescence of sensor and its Fe complex; assay type: physicochemical; details: pH adjusted with HCl/NaOH

apparent binding constant [2]: 1.27e+07 M⁻¹ | pH range over which sensor (and Fe complex) fluorescence is stable / working pH range [5]: 5-9 and 5 to 9
SMILES: CCN(CC)c1ccc2c(c1)Oc1cc(N(CC)CC)ccc1C21c2ccccc2C(=O)N1/N=C/c1cccc(CO)n1 [RhHPA, (E)-3′,6′-bis(diethylamino)-2-(((6-(hydroxymethyl)pyridin-2-yl)methylene)amino)spiro[isoindoline-1,9′-xanthen]-3-one]
toxicity for cells ([1]; culture experiments): non-toxic | cell permeability ([1]; live cells in culture): excellent cell permeability; also recorded: cell permeable | increase in fluorescence emission intensity [3]: ~20 fold | increase in fluorescent intensity in Fe^3+-treated cells ([4]; 10 μM FeCl3 overnight, then 10 μM RhHPA 30 min): ~8 fold | fluorescence enhancement in cells ([4]; 10 μM sensor, 30 min, no Fe^3+ supplementation): 4 fold | change in fluorescence signal, Fe^3+ then chelator ([4]; 20 μM Fe^3+ overnight, then 100 μM SIH, then 10 μM RhHPA, versus Fe(III) supplement): large decrease in fluorescence signal | change in fluorescence signal with chelator ([4]; 100 μM SIH, non-iron-loaded cells): small decrease in fluorescence signal
